According to patent US12599672B2, “KRAS proteolysis targeting chimeras” (PAQ Therapeutics Inc., priority 2023, dated 2026):

What was measured:
Format in all cases: cell-based
KRAS G12D = target: T1, KRAS G12D (Homo sapiens, UniProt P01116, G12D); test: KRAS G12D HiBit assay; details: AsPc-1-KRAS (G12D)-HiBit-KI cell, compound treatment for 24 hours, absolute DC50; class symbols
T1 construct: AsPc-1-KRAS (G12D)-HiBit-KI cell (Pharmaron); host or cells: AsPc-1-KRAS (G12D)-HiBit-KI cells (HiBiT knock-in at the endogenous KRAS locus)
Method in brief: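 Cells were treated for 24 h with compounds in a 3-fold, 10-point dilution series from a 0.3 mM DMSO stock, then equilibrated 15 min at room temperature. KRAS G12D HiBiT levels were read by luminescence after lytic Nano-Glo HiBiT reagent with LgBiT; inhibition calculated relative to 0.1% DMSO high control.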

KRAS G12V = target: T2, KRAS G12V (Homo sapiens, UniProt P01116, G12V); test: KRAS G12V HiBit assay; details: SW620-KRAS (G12V)-HiBit-KI cells, compound treatment for 24 hours, class symbols
T2 construct: SW620-KRAS (G12V)-HiBit-KI cell (Pharmaron); host or cells: SW620-KRAS (G12V)-HiBit-KI cells (HiBiT knock-in at the endogenous KRAS locus)
Method in brief: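 HiBiT-tagged KRAS G12V cells treated 24 h with compound in a 3-fold, 10-point series (0.3 mM DMSO stock); lytic HiBiT reagent with LgBiT added after 15 min room-temperature equilibration. Degradation calculated against 0.1% DMSO high control.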

KRAS = target: T3, KRAS (Homo sapiens, UniProt P01116); test: KRASamp MSD assay; details: KE39 (KRAS amplified) cells, treated with test compounds for 24 hr, MSD readout of KRAS degradation
T3 construct: endogenous in cells; host or cells: KE39 (KRAS amplified) cells
Method in brief: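 KRAS-amplified KE39 cells treated with compound for 24 hr, then lysed in RIPA buffer with protease/phosphatase inhibitors. KRAS protein measured by MSD sandwich immunoassay against a recombinant WT KRAS standard curve; DC50 derived from curve fitting of degradation.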

T2 sequence (P01116 1-188 isoform P01116-2 G12V): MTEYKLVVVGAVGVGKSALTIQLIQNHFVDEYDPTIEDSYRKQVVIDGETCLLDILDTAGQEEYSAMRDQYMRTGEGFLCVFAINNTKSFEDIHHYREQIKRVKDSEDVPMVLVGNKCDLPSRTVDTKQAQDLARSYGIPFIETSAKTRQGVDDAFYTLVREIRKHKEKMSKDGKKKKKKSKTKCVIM
T1 sequence (P01116 1-188 isoform P01116-2 G12D): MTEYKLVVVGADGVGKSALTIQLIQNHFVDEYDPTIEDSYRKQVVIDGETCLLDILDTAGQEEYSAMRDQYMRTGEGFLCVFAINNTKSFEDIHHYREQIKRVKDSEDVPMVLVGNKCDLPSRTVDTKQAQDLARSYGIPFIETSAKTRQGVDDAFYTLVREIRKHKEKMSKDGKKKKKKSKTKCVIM
T3 sequence (P01116 1-188 isoform P01116-2): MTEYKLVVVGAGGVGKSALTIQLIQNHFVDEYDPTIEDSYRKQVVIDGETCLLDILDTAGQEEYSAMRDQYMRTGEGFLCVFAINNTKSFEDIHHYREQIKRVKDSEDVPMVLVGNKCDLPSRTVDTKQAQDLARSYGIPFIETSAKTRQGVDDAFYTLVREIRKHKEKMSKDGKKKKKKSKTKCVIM

SMILES	DC50 (KRAS G12D)	DC50 (KRAS G12V)	DC50 (KRAS)
C#Cc1c(F)ccc2cc(O)cc(-c3ncc4c(N5CCC[C@@](C)(O)C5)nc(OC[C@@]56CCCN5[C@H](COC(=O)N5CC7(CC(N8CCC(c9ccc%10c(c9)n(C)c(=O)n%10C9CCC(=O)NC9=O)CC8)C7)C5)CC6)nc4c3F)c12 (stereo partly drawn) [Compound 419, ((3S,7aS)-7a-(((7-(8-ethynyl-7-fluoro-3-hydroxynaphthalen-1-yl)-8-fluoro-4-((R)-3-hydroxy-3-methylpiperidin-1-yl)pyrido[4,3-d]pyrimidin-2-yl)oxy)methyl)hexahydro-1H-pyrrolizin-3-yl)methyl 6-(4-(1-(2,6-dioxopiperidin-3-yl)-3-methyl-2-oxo-2,3-dihydro-1H-benzo[d]imidazol-5-yl)piperidin-1-yl)-2-azaspiro[3.3]heptane-2-carboxylate]	< 100 nM	< 10 nM	< 1 nM
C#Cc1c(F)ccc2cc(O)cc(-c3ncc4c(N5CCC[C@@](C)(O)C5)nc(OC[C@@]56CCCN5[C@H](COC(=O)N5CC7(CCC(N8CCC(c9ccc%10c(c9)n(C)c(=O)n%10C9CCC(=O)NC9=O)CC8)CC7)C5)CC6)nc4c3F)c12 (stereo partly drawn) [Compound 420, ((3S,7aS)-7a-(((7-(8-ethynyl-7-fluoro-3-hydroxynaphthalen-1-yl)-8-fluoro-4-((R)-3-hydroxy-3-methylpiperidin-1-yl)pyrido[4,3-d]pyrimidin-2-yl)oxy)methyl)hexahydro-1H-pyrrolizin-3-yl)methyl 7-(4-(1-(2,6-dioxopiperidin-3-yl)-3-methyl-2-oxo-2,3-dihydro-1H-benzo[d]imidazol-5-yl)piperidin-1-yl)-2-azaspiro[3.5]nonane-2-carboxylate]	< 100 nM	10 to 100 nM	1 to 10 nM
C#Cc1c(F)ccc2cc(O)cc(-c3ncc4c(N5CCC[C@@](C)(O)C5)nc(OC[C@@]56CCCN5[C@H](COC(=O)N5CC7(CCC(CN8CCC(c9ccc%10c(c9)n(C)c(=O)n%10C9CCC(=O)NC9=O)CC8)CC7)C5)CC6)nc4c3F)c12 (stereo partly drawn) [Compound 421, ((3S,7aS)-7a-(((7-(8-ethynyl-7-fluoro-3-hydroxynaphthalen-1-yl)-8-fluoro-4-((R)-3-hydroxy-3-methylpiperidin-1-yl)pyrido[4,3-d]pyrimidin-2-yl)oxy)methyl)hexahydro-1H-pyrrolizin-3-yl)methyl 7-((4-(1-(2,6-dioxopiperidin-3-yl)-3-methyl-2-oxo-2,3-dihydro-1H-benzo[d]imidazol-5-yl)piperidin-1-yl)methyl)-2-azaspiro[3.5]nonane-2-carboxylate]	< 100 nM	< 10 nM	< 1 nM
CCc1c(F)ccc2cc(O)cc(-c3ncc4c(N5CCCOCC5)nc(OC[C@@]56CCCN5[C@H](COC(=O)N5CCC(CN7CCC(c8ccc9c(c8)n(C)c(=O)n9C8CCC(=O)NC8=O)CC7)CC5)CC6)nc4c3F)c12 (stereo partly drawn) [Compound 422, ((3S,7aS)-7a-(((7-(8-ethyl-7-fluoro-3-hydroxynaphthalen-1-yl)-8-fluoro-4-(1,4-oxazepan-4-yl)pyrido[4,3-d]pyrimidin-2-yl)oxy)methyl)hexahydro-1H-pyrrolizin-3-yl)methyl 4-((4-(1-(2,6-dioxopiperidin-3-yl)-3-methyl-2-oxo-2,3-dihydro-1H-benzo[d]imidazol-5-yl)piperidin-1-yl)methyl)piperidine-1-carboxylate]	< 100 nM	< 10 nM	< 1 nM
CCc1c(F)ccc2cc(O)cc(-c3ncc4c(N5CCCOCC5)nc(OC[C@]56CCCN5[C@H](COC(=O)N5CCC(CN7CCC(c8ccc9c(c8)n(C)c(=O)n9C8CCC(=O)NC8=O)CC7)CC5)CC6)nc4c3F)c12 (stereo partly drawn) [Compound 423, ((3S,7aR)-7a-(((7-(8-ethyl-7-fluoro-3-hydroxynaphthalen-1-yl)-8-fluoro-4-(1,4-oxazepan-4-yl)pyrido[4,3-d]pyrimidin-2-yl)oxy)methyl)hexahydro-1H-pyrrolizin-3-yl)methyl 4-((4-(1-(2,6-dioxopiperidin-3-yl)-3-methyl-2-oxo-2,3-dihydro-1H-benzo[d]imidazol-5-yl)piperidin-1-yl)methyl)piperidine-1-carboxylate]	< 100 nM	< 10 nM	< 1 nM
CCc1c(F)ccc2cc(O)cc(-c3ncc4c(N5CCC[C@@](C)(O)C5)nc(OC[C@@]56CCCN5[C@H](COC(=O)NC5CCN(C7CCN(c8ccc9c(c8)n(C)c(=O)n9C8CCC(=O)NC8=O)CC7)CC5)CC6)nc4c3F)c12 (stereo partly drawn) [Compound 427, ((3S,7aS)-7a-(((7-(8-ethyl-7-fluoro-3-hydroxynaphthalen-1-yl)-8-fluoro-4-((R)-3-hydroxy-3-methylpiperidin-1-yl)pyrido[4,3-d]pyrimidin-2-yl)oxy)methyl)hexahydro-1H-pyrrolizin-3-yl)methyl (1′-(1-(2,6-dioxopiperidin-3-yl)-3-methyl-2-oxo-2,3-dihydro-1H-benzo[d]imidazol-5-yl)-[1,4′-bipiperidin]-4-yl)carbamate]	< 100 nM	10 to 100 nM	≥ 10 nM

Now from value to compound:

DC50 (KRAS G12D)	DC50 (KRAS G12V)	DC50 (KRAS)	SMILES
< 100 nM	< 10 nM	1 to 10 nM	C#Cc1c(F)ccc2cc(O)cc(-c3ncc4c(N5CCC[C@@](C)(O)C5)nc(OC[C@@]56CCCN5[C@H](COC(=O)N5CC7(CC(CN8CCC(c9ccc%10c(c9)n(C)c(=O)n%10C9CCC(=O)NC9=O)CC8)C7)C5)CC6)nc4c3F)c12 (stereo partly drawn) [Compound 418, ((3S,7aS)-7a-(((7-(8-ethynyl-7-fluoro-3-hydroxynaphthalen-1-yl)-8-fluoro-4-((R)-3-hydroxy-3-methylpiperidin-1-yl)pyrido[4,3-d]pyrimidin-2-yl)oxy)methyl)hexahydro-1H-pyrrolizin-3-yl)methyl 6-((4-(1-(2,6-dioxopiperidin-3-yl)-3-methyl-2-oxo-2,3-dihydro-1H-benzo[d]imidazol-5-yl)piperidin-1-yl)methyl)-2-azaspiro[3.3]heptane-2-carboxylate]
< 100 nM	< 10 nM	< 1 nM	CCc1c(F)ccc2cc(O)cc(-c3ccc4c(N5CCC[C@@](C)(O)C5)nc(OC[C@@]56CCCN5[C@H](COC(=O)N5CCC(CN7CCC(c8cc9c(cc8F)n(C8CCC(=O)NC8=O)c(=O)n9C)CC7)CC5)CC6)nc4c3F)c12 (stereo partly drawn) [Compound 424, ((3S,7aS)-7a-(((7-(8-ethyl-7-fluoro-3-hydroxynaphthalen-1-yl)-8-fluoro-4-((R)-3-hydroxy-3-methylpiperidin-1-yl)quinazolin-2-yl)oxy)methyl)hexahydro-1H-pyrrolizin-3-yl)methyl 4-((4-(1-(2,6-dioxopiperidin-3-yl)-6-fluoro-3-methyl-2-oxo-2,3-dihydro-1H-benzo[d]imidazol-5-yl)piperidin-1-yl)methyl)piperidine-1-carboxylate]
< 100 nM	< 10 nM	< 1 nM	CCc1c(F)ccc2cc(O)cc(-c3ncc4c(N5CCC[C@@](C)(O)C5)nc(OC[C@]56CCCN5[C@@H](COC(=O)N5CCC(CN7CCC(c8cc9c(cc8F)n(C8CCC(=O)NC8=O)c(=O)n9C)CC7)CC5)CC6)nc4c3F)c12 (stereo partly drawn) [Compound 425, ((3R,7aR)-7a-(((7-(8-ethyl-7-fluoro-3-hydroxynaphthalen-1-yl)-8-fluoro-4-((R)-3-hydroxy-3-methylpiperidin-1-yl)pyrido[4,3-d]pyrimidin-2-yl)oxy)methyl)hexahydro-1H-pyrrolizin-3-yl)methyl 4-((4-(1-(2,6-dioxopiperidin-3-yl)-6-fluoro-3-methyl-2-oxo-2,3-dihydro-1H-benzo[d]imidazol-5-yl)piperidin-1-yl)methyl)piperidine-1-carboxylate]
< 100 nM	10 to 100 nM	< 1 nM	CCc1c(F)ccc2cc(O)cc(-c3ncc4c(N5CCC[C@@](C)(O)C5)nc(OC[C@@]56CCCN5[C@@H](COC(=O)N5CCC(CN7CCC(c8cc9c(cc8F)n(C8CCC(=O)NC8=O)c(=O)n9C)CC7)CC5)CC6)nc4c3F)c12 (stereo partly drawn) [Compound 426, ((3R,7aS)-7a-(((7-(8-ethyl-7-fluoro-3-hydroxynaphthalen-1-yl)-8-fluoro-4-((R)-3-hydroxy-3-methylpiperidin-1-yl)pyrido[4,3-d]pyrimidin-2-yl)oxy)methyl)hexahydro-1H-pyrrolizin-3-yl)methyl 4-((4-(1-(2,6-dioxopiperidin-3-yl)-6-fluoro-3-methyl-2-oxo-2,3-dihydro-1H-benzo[d]imidazol-5-yl)piperidin-1-yl)methyl)piperidine-1-carboxylate]
< 100 nM	10 to 100 nM	1 to 10 nM	CCc1c(F)ccc2cc(O)cc(-c3ncc4c(N5CCC[C@@](C)(O)C5)nc(OC[C@@]56CCCN5[C@H](COC(=O)NC5CCN(CC7CCN(c8ccc9c(c8)n(C)c(=O)n9C8CCC(=O)NC8=O)CC7)CC5)CC6)nc4c3F)c12 (stereo partly drawn) [Compound 428, ((3S,7aS)-7a-(((7-(8-ethyl-7-fluoro-3-hydroxynaphthalen-1-yl)-8-fluoro-4-((R)-3-hydroxy-3-methylpiperidin-1-yl)pyrido[4,3-d]pyrimidin-2-yl)oxy)methyl)hexahydro-1H-pyrrolizin-3-yl)methyl (1-((1-(1-(2,6-dioxopiperidin-3-yl)-3-methyl-2-oxo-2,3-dihydro-1H-benzo[d]imidazol-5-yl)piperidin-4-yl)methyl)piperidin-4-yl)carbamate]
